From PubChem BioAssay AID1963447 (Molecular Pharmacology Branch, DTP, NCI, 2024)
Each block holds one compound with its values, some of them ahead of it.

Test system: 885512-296-R-J2-PDC complex spheroid growth, % test/control
Assay: Anticancer human tumor 885512-296-R-J2-PDC patient-derived breast carcinoma cell line growth inhibition [Asc]
Conditions: for IC50: curve of first compound; for viability, T/C: stronger effect = lower value
Method in brief: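 Concentration series start at each agent's clinical Cmax, or at 10 microM when none is established, and drop in half-log steps; agents are applied alone or together to complex spheroids built with HUVEC and hMSC.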

[1] = second compound 0.1 µM, first compound 0.00316 µM
[2] = second compound 0.1 µM, first compound 0.01 µM
[3] = second compound 0.1 µM, first compound 0.0316 µM
[4] = second compound 0.1 µM, first compound 0.1 µM
[5] = second compound 0.316 µM, first compound 0.00316 µM
[6] = second compound 0.316 µM, first compound 0.01 µM
[7] = second compound 0.316 µM, first compound 0.0316 µM
[8] = second compound 0.316 µM, first compound 0.1 µM
[9] = second compound 1 µM, first compound 0.00316 µM
[10] = second compound 1 µM, first compound 0.01 µM
[11] = second compound 1 µM, first compound 0.0316 µM
[12] = second compound 1 µM, first compound 0.1 µM
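Also: spheroids exposed to compounds for seven days.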
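For viability, T/C in this document: 100% = DMSO vehicle control wells.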

IC50 (second compound 0.01 µM): 0.0262 µM
IC50 (second compound 0.0316 µM): 0.0176 µM
IC50 (second compound 0.1 µM): 0.0234 µM
IC50 (second compound 0.316 µM): 0.0153 µM
IC50 (second compound 1 µM): 0.0213 µM
SMILES: Cn1ncnc1[C@H]1c2n[nH]c(=O)c3cc(F)cc(c23)N[C@@H]1c1ccc(F)cc1 + CNC(C)C(=O)NC1CN(S(=O)(=O)c2cccc(S(=O)(=O)N3CCC4CCC(C(=O)NC(c5ccccc5)c5ccccc5)N4C(=O)C(NC(=O)C(C)NC)C3)c2)CCC2CCC(C(=O)NC(c3ccccc3)c3ccccc3)N2C1=O
viability, T/C (second compound 0.01 µM, first compound 0.000316 µM): 86%
viability, T/C (second compound 0.01 µM, first compound 0.001 µM): 71.1%
viability, T/C (second compound 0.01 µM, first compound 0.00316 µM): 73.5%
viability, T/C (second compound 0.01 µM, first compound 0.01 µM): 63.4%
viability, T/C (second compound 0.01 µM, first compound 0.0316 µM): 47.7%
viability, T/C (second compound 0.01 µM, first compound 0.1 µM): 26.2%
viability, T/C (second compound 0.0316 µM, first compound 0.000316 µM): 98.5%
viability, T/C (second compound 0.0316 µM, first compound 0.001 µM): 96.5%
viability, T/C (second compound 0.0316 µM, first compound 0.00316 µM): 92.3%
viability, T/C (second compound 0.0316 µM, first compound 0.01 µM): 60.5%
viability, T/C (second compound 0.0316 µM, first compound 0.0316 µM): 40.1%
viability, T/C (second compound 0.0316 µM, first compound 0.1 µM): 31.2%
viability, T/C (second compound 0.1 µM, first compound 0.000316 µM): 102%
viability, T/C (second compound 0.1 µM, first compound 0.001 µM): 100%
viability, T/C [1]: 90.8%
viability, T/C [2]: 70.5%
viability, T/C [3]: 42.9%
viability, T/C [4]: 22.4%
viability, T/C (second compound 0.316 µM, first compound 0.000316 µM): 98%
viability, T/C (second compound 0.316 µM, first compound 0.001 µM): 100%
viability, T/C [5]: 94.6%
viability, T/C [6]: 56%
viability, T/C [7]: 42.4%
viability, T/C [8]: 27.6%
viability, T/C (second compound 1 µM, first compound 0.000316 µM): 108%
viability, T/C (second compound 1 µM, first compound 0.001 µM): 97.1%
viability, T/C [9]: 98.2%
viability, T/C [10]: 65.6%
viability, T/C [11]: 42.5%
viability, T/C [12]: 26.2%

IC50 (second compound 0.1 µM): 0.121 µM
IC50 (second compound 0.316 µM): 0.0941 µM
IC50 (second compound 1 µM): 0.089 µM
IC50 (second compound 3.16 µM): 0.0779 µM
IC50 (second compound 10 µM): 0.452 µM
SMILES: O=C(c1ccc(F)c(F)c1Nc1ccc(I)cc1F)N1CC(O)([C@@H]2CCCCN2)C1 + Cc1c(S(C)(=O)=O)c(-c2cc(F)cc(N3CCN(c4ccc(NS(=O)(=O)c5ccc(NC(CCN6CCC(C(=O)OCCCP(=O)(O)O)CC6)CSc6ccccc6)c(S(=O)(=O)C(F)(F)F)c5)cc4)CC3)c2)c(-c2ccc(Cl)cc2)n1C(C)C
viability, T/C [1]: 77.6%
viability, T/C [2]: 82.5%
viability, T/C [3]: 69.9%
viability, T/C [4]: 50.8%
viability, T/C (second compound 0.1 µM, first compound 0.316 µM): 34%
viability, T/C (second compound 0.1 µM, first compound 1 µM): 13.1%
viability, T/C [5]: 94%
viability, T/C [6]: 88.8%
viability, T/C [7]: 63.6%
viability, T/C [8]: 51.9%
viability, T/C (second compound 0.316 µM, first compound 0.316 µM): 28.7%
viability, T/C (second compound 0.316 µM, first compound 1 µM): 13.7%
viability, T/C [9]: 86.9%
viability, T/C [10]: 68.7%
viability, T/C [11]: 68.1%
viability, T/C [12]: 48.4%
viability, T/C (second compound 1 µM, first compound 0.316 µM): 30.2%
viability, T/C (second compound 1 µM, first compound 1 µM): 12.2%
viability, T/C (second compound 3.16 µM, first compound 0.00316 µM): 102%
viability, T/C (second compound 3.16 µM, first compound 0.01 µM): 86.8%
viability, T/C (second compound 3.16 µM, first compound 0.0316 µM): 55.1%
viability, T/C (second compound 3.16 µM, first compound 0.1 µM): 51.5%
viability, T/C (second compound 3.16 µM, first compound 0.316 µM): 30.4%
viability, T/C (second compound 3.16 µM, first compound 1 µM): 11.2%
viability, T/C (second compound 10 µM, first compound 0.00316 µM): 111%
viability, T/C (second compound 10 µM, first compound 0.01 µM): 109%
viability, T/C (second compound 10 µM, first compound 0.0316 µM): 99.2%
viability, T/C (second compound 10 µM, first compound 0.1 µM): 96.1%
viability, T/C (second compound 10 µM, first compound 0.316 µM): 64.2%
viability, T/C (second compound 10 µM, first compound 1 µM): 16.4%

IC50 (second compound 0.1 µM): 0.275 µM
IC50 (second compound 0.316 µM): 0.275 µM
IC50 (second compound 1 µM): 0.172 µM
IC50 (second compound 3.16 µM): 0.167 µM
IC50 (second compound 10 µM): > 3 µM
SMILES: Cc1nc(N2CCC3(CC2)COC(C)C3N)c(CO)nc1Sc1ccnc(N)c1Cl (stereo not given) + Cc1c(S(C)(=O)=O)c(-c2cc(F)cc(N3CCN(c4ccc(NS(=O)(=O)c5ccc(NC(CCN6CCC(C(=O)OCCCP(=O)(O)O)CC6)CSc6ccccc6)c(S(=O)(=O)C(F)(F)F)c5)cc4)CC3)c2)c(-c2ccc(Cl)cc2)n1C(C)C
viability, T/C (second compound 0.1 µM, first compound 0.00949 µM): 83.7%
viability, T/C (second compound 0.1 µM, first compound 0.03 µM): 67.7%
viability, T/C (second compound 0.1 µM, first compound 0.0949 µM): 58%
viability, T/C (second compound 0.1 µM, first compound 0.3 µM): 50.4%
viability, T/C (second compound 0.1 µM, first compound 0.949 µM): 42.1%
viability, T/C (second compound 0.1 µM, first compound 3 µM): 32.4%
viability, T/C (second compound 0.316 µM, first compound 0.00949 µM): 76.5%
viability, T/C (second compound 0.316 µM, first compound 0.03 µM): 63.7%
viability, T/C (second compound 0.316 µM, first compound 0.0949 µM): 62.7%
viability, T/C (second compound 0.316 µM, first compound 0.3 µM): 46.2%
viability, T/C (second compound 0.316 µM, first compound 0.949 µM): 42.8%
viability, T/C (second compound 0.316 µM, first compound 3 µM): 37%
viability, T/C (second compound 1 µM, first compound 0.00949 µM): 76.7%
viability, T/C (second compound 1 µM, first compound 0.03 µM): 60.2%
viability, T/C (second compound 1 µM, first compound 0.0949 µM): 59.1%
viability, T/C (second compound 1 µM, first compound 0.3 µM): 41.8%
viability, T/C (second compound 1 µM, first compound 0.949 µM): 42.6%
viability, T/C (second compound 1 µM, first compound 3 µM): 34.7%
viability, T/C (second compound 3.16 µM, first compound 0.00949 µM): 94.5%
viability, T/C (second compound 3.16 µM, first compound 0.03 µM): 67.4%
viability, T/C (second compound 3.16 µM, first compound 0.0949 µM): 56.8%
viability, T/C (second compound 3.16 µM, first compound 0.3 µM): 45.4%
viability, T/C (second compound 3.16 µM, first compound 0.949 µM): 39.5%
viability, T/C (second compound 3.16 µM, first compound 3 µM): 33.4%
viability, T/C (second compound 10 µM, first compound 0.00949 µM): 117%
viability, T/C (second compound 10 µM, first compound 0.03 µM): 110%
viability, T/C (second compound 10 µM, first compound 0.0949 µM): 96.2%
viability, T/C (second compound 10 µM, first compound 0.3 µM): 113%
viability, T/C (second compound 10 µM, first compound 0.949 µM): 95.9%
viability, T/C (second compound 10 µM, first compound 3 µM): 85.9%
